Laboratory results: ChEMBL document CHEMBL1143899, “Aryl-indolyl maleimides as inhibitors of CaMKIIdelta. Part 3: Importance of the indole orientation” (Bioorg Med Chem Lett, 2008)

What follows are compounds tested against T1, Calcium/calmodulin-dependent protein kinase type II subunit delta (Homo sapiens, UniProt Q13557) (assay: Inhibition of CaMK2delta using freshly stock solution of compound).
T1 sequence (Q13557 whole entry): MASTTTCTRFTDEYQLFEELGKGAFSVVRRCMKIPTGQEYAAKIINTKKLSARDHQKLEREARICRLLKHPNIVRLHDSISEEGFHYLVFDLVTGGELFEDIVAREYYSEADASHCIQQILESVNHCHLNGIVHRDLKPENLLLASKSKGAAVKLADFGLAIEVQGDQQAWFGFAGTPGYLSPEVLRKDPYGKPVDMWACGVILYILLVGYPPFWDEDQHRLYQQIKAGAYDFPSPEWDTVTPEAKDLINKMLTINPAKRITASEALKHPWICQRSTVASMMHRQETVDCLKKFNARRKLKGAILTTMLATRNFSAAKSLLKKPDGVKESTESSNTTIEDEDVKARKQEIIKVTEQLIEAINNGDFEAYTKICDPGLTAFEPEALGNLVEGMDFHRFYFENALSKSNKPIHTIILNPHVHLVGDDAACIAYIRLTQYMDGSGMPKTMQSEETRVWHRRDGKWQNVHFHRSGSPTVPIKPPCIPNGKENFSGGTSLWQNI

`NCCCn1cc(C2=C(c3ccccc3)C(=O)NC2=O)c2ccccc21` and `NCCCn1cc(C2=C(c3csc4ccccc34)C(=O)NC2=O)c2ccccc21` are within 1.5-fold of each other in IC50: 350 nM for the first, 360 nM for the second.

Each compound was assayed against T1, Calcium/calmodulin-dependent protein kinase type II subunit delta (assay: Inhibition of CaMK2delta using 3 weeks old stock solution of compound).

Compared with `NCCCn1cc(C2=C(c3ccccc3)C(=O)NC2=O)c2ccccc21`, `NCCCn1cc(C2=C(c3csc4ccccc34)C(=O)NC2=O)c2ccccc21` is lower in IC50: 230 nM for the first, less than 39 nM for the second.

These compounds were tested against T1, Calcium/calmodulin-dependent protein kinase type II subunit delta (assay: Inhibition of CaMK2delta).

First: CNCCc1cn(C2=C(c3c[nH]c4ccc(C(=O)N(C)C)cc34)C(=O)NC2=O)c2ccccc12
Second: CNCCc1cn(C2=C(c3c[nH]c4ccc(C(N)=O)cc34)C(=O)NC2=O)c2ccccc12
The IC50 of the first is 62-fold higher: 11800 nM for the first, 190 nM for the second.

Going from `NCCc1cn(C2=C(c3c[nH]c4ccc(Cl)cc34)C(=O)NC2=O)c2ccccc12` to `NCCc1cn(C2=C(c3c[nH]c4ccc(F)cc34)C(=O)NC2=O)c2ccccc12`, the IC50 rises from 10 nM to 38 nM (3.8-fold). The first is the more potent here.

Compared with `Cc1[nH]c2ccccc2c1C1=C(c2cn(CCCN)c3ccccc23)C(=O)NC1=O`, `NCCCn1cc(C2=C(c3c[nH]c4ccccc34)C(=O)NC2=O)c2ccccc21` is 2-fold lower in IC50: 750 nM for the first, 380 nM for the second.

Going from `CNCCc1cn(C2=C(c3c[nH]c4ccc(C(=O)NC)cc34)C(=O)NC2=O)c2ccccc12` to `CNCCc1cn(C2=C(c3c[nH]c4ccc(C(=O)OC)cc34)C(=O)NC2=O)c2ccccc12`, the IC50 falls from 280 nM to 21 nM (13-fold).

First: CN(C)CCc1cn(C2=C(c3c[nH]c4ccccc34)C(=O)NC2=O)c2ccccc12
Second: CN(C)Cc1cn(C2=C(c3c[nH]c4ccccc34)C(=O)NC2=O)c2ccccc12
The IC50 of the first is 4.3-fold lower: 560 nM for the first, 2410 nM for the second.

Going from `N#Cc1ccc2[nH]cc(C3=C(n4cc(CCN)c5ccccc54)C(=O)NC3=O)c2c1` to `COc1ccc2[nH]cc(C3=C(n4cc(CCN)c5ccccc54)C(=O)NC3=O)c2c1`, the IC50 rises from 46 nM to 170 nM (3.7-fold).

Going from `CNCCc1cn(C2=C(c3c[nH]c4ccc(C(=O)O)cc34)C(=O)NC2=O)c2ccccc12` to `CNCCc1cn(C2=C(c3c[nH]c4ccc(Cl)cc34)C(=O)NC2=O)c2ccccc12`, the IC50 falls from 380 nM to 13 nM (29-fold).

`CNCCc1cn(C2=C(c3c[nH]c4ccccc34)C(=O)NC2=O)c2ccccc12` and `NCCc1cn(C2=C(c3c[nH]c4ccccc34)C(=O)NC2=O)c2ccccc12` are within 1.5-fold of each other in IC50: 150 nM for the first, 110 nM for the second.

First: NCCc1cn(C2=C(c3c[nH]c4ccc(C(F)(F)F)cc34)C(=O)NC2=O)c2ccccc12
Second: CCc1ccc2[nH]cc(C3=C(n4cc(CCNC)c5ccccc54)C(=O)NC3=O)c2c1
The IC50 of the first is 3.4-fold lower: 32 nM for the first, 110 nM for the second.

`NCCCn1cc(C2=C(n3ccc4ccccc43)C(=O)NC2=O)c2ccccc21` was tested, and the IC50 was 4560 nM.
